We go through 30 compounds from ChEMBL document CHEMBL1697731, “Cheminformatics analysis of assertions mined from literature that describe drug-induced liver injury in different species” (Chem Res Toxicol, 2010).

Series [1] relates to Hepatotoxicity. Nature of the series: Literature-mined compound from Fourches et al multi-species drug-induced liver injury (DILI) dataset, effect in humans. The following applies: human.
Series [2] has as its system Hepatotoxicity. Nature of the series: Literature-mined compound from Fourches et al multi-species drug-induced liver injury (DILI) dataset, effect in rodents. Conditions: rodentia.
Series [3] concerns Hepatotoxicity. Nature of the series: Literature-mined compound from Fourches et al multi-species drug-induced liver injury (DILI) dataset, effect in non-rodents.

Regarding `CC[C@@]1([C@H]2O[C@H]([C@H]3O[C@@](O)(CO)[C@H](C)C[C@@H]3C)C[C@H]2C)CC[C@H]([C@@]2(C)CC[C@]3(C[C@H](O)[C@@H](C)[C@@H]([C@H](C)[C@H](OC)[C@@H](C)C(=O)[O-])O3)O2)O1.[Na+]` [MONENSIN SODIUM], the figures for the Hepatotoxicity entry in series [1], in series [2] and in series [3] were “no drug-induced liver injury reported”, “drug-induced liver injury reported” and “no drug-induced liver injury reported”, respectively.

As for `CC(C)(O)c1ccccc1CC[C@@H](SCC1(CC(=O)O)CC1)c1cccc(/C=C/c2ccc3ccc(Cl)cc3n2)c1` [MONTELUKAST], the Hepatotoxicity entry in series [1] was “drug-induced liver injury reported”; in series [2] it was “no drug-induced liver injury reported”; in series [3] it was “no drug-induced liver injury reported”.

Take `O=C(NCN1CCOCC1)c1cnccn1` [MORINAMIDE]: the Hepatotoxicity entry was “drug-induced liver injury reported” in series [1], “no drug-induced liver injury reported” in series [2] and “no drug-induced liver injury reported” in series [3].

`CN1CC[C@]23c4c5ccc(O)c4O[C@H]2[C@@H](O)C=C[C@H]3[C@H]1C5` [MORPHINE]: the Hepatotoxicity entry in series [1] (Liver) is given as “drug-induced liver injury reported”; in series [2] (Liver) it was “drug-induced liver injury reported”; in series [3] (Liver) it was “no drug-induced liver injury reported”.

Turning to `CO[C@@]1(NC(=O)C(C(=O)O)c2ccc(O)cc2)C(=O)N2C(C(=O)O)=C(CSc3nnnn3C)CO[C@@H]21` (stereo not given in full) [MOXALACTAM], the Hepatotoxicity entry in series [1] is “drug-induced liver injury reported”; in series [2] it was “no drug-induced liver injury reported”; in series [3], “no drug-induced liver injury reported”.

Take `COc1c(N2C[C@@H]3CCCN[C@@H]3C2)c(F)cc2c(=O)c(C(=O)O)cn(C3CC3)c12` [MOXIFLOXACIN]: the Hepatotoxicity entry is “drug-induced liver injury reported” in series [1], “no drug-induced liver injury reported” in series [2] and “no drug-induced liver injury reported” in series [3].

Regarding `CC(=O)Oc1cc(C(C)C)c(OCCN(C)C)cc1C` [MOXISYLYTE], the Hepatotoxicity entry is given as “drug-induced liver injury reported” in series [1], “no drug-induced liver injury reported” in series [2] and “no drug-induced liver injury reported” in series [3].

For the compound `COc1nc(C)nc(Cl)c1N=C1NCCN1` [MOXONIDINE], the Hepatotoxicity result in series [1] is recorded as “no drug-induced liver injury reported”; in series [2], “drug-induced liver injury reported”; in series [3], “no drug-induced liver injury reported”.

As to `CC(c1ccc(Cl)c(Cl)c1)N1N=C(N)CC1=O` (stereo not given) [MUZOLIMINE], the figures for the Hepatotoxicity entry in series [1], in series [2] and in series [3] were “drug-induced liver injury reported”, “no drug-induced liver injury reported” and “no drug-induced liver injury reported”, respectively.

Take `COc1c(C)c2c(c(O)c1C/C=C(\C)CCC(=O)OCCN1CCOCC1)C(=O)OC2` [MYCOPHENOLATE MOFETIL]: the values for the Hepatotoxicity entry in series [1], in series [2] and in series [3] were “drug-induced liver injury reported”, “no drug-induced liver injury reported” and “no drug-induced liver injury reported”, respectively.

Turning to `COc1c(C)c2c(c(O)c1C/C=C(\C)CCC(=O)O)C(=O)OC2` [MYCOPHENOLIC ACID], the Hepatotoxicity result in series [1] is listed as “drug-induced liver injury reported”; in series [2] it was “drug-induced liver injury reported”; in series [3], “no drug-induced liver injury reported”.

`COc1ccc2cc(CCC(C)=O)ccc2c1` [NABUMETONE]: the Hepatotoxicity result is recorded as “no drug-induced liver injury reported” in series [1], “drug-induced liver injury reported” in series [2] and “no drug-induced liver injury reported” in series [3].

For the compound `NC(=O)c1ccc[n+]([C@@H]2O[C@H](COP(=O)([O-])OP(=O)(O)OC[C@H]3O[C@@H](n4cnc5c(N)ncnc54)[C@H](O)[C@@H]3O)[C@@H](O)[C@H]2O)c1` [NADIDE], the Hepatotoxicity result in series [1] is “no drug-induced liver injury reported”; in series [2], “drug-induced liver injury reported”; in series [3] it was “no drug-induced liver injury reported”.

Take `CC(C)(C)NCC(O)COc1cccc2c1CC(O)C(O)C2` (stereo not given) [NADOLOL]: the Hepatotoxicity result in series [1] was “drug-induced liver injury reported”; in series [2], “no drug-induced liver injury reported”; in series [3], “no drug-induced liver injury reported”.

With `CC(C)C[C@H](NC(=O)[C@@H](Cc1ccc2ccccc2c1)NC(=O)[C@H](Cc1ccc(O)cc1)NC(=O)[C@H](CO)NC(=O)[C@H](Cc1c[nH]c2ccccc12)NC(=O)[C@H](Cc1c[nH]cn1)NC(=O)[C@@H]1CCC(=O)N1)C(=O)N[C@@H](CCCNC(=N)N)C(=O)N1CCC[C@H]1C(=O)NCC(N)=O` [NAFARELIN], the Hepatotoxicity entry in series [1] is “drug-induced liver injury reported”; in series [2], “no drug-induced liver injury reported”; in series [3], “no drug-induced liver injury reported”.

Take `CCn1cc(C(=O)O)c(=O)c2ccc(C)nc21` [NALIDIXIC ACID]: the Hepatotoxicity result is recorded as “drug-induced liver injury reported” in series [1], “drug-induced liver injury reported” in series [2] and “no drug-induced liver injury reported” in series [3].

Consider `C=CCN1CC[C@]23c4c5ccc(O)c4O[C@H]2[C@@H](O)C=C[C@H]3[C@H]1C5` [NALORPHINE], for which the Hepatotoxicity entry is given as “no drug-induced liver injury reported” in series [1], “drug-induced liver injury reported” in series [2] and “no drug-induced liver injury reported” in series [3].

For `C=CCN1CC[C@]23c4c5ccc(O)c4O[C@H]2C(=O)CC[C@@]3(O)[C@H]1C5` [NALOXONE], the Hepatotoxicity entry is “no drug-induced liver injury reported” in series [1], “drug-induced liver injury reported” in series [2] and “no drug-induced liver injury reported” in series [3].

With `O=C1CC[C@@]2(O)[C@H]3Cc4ccc(O)c5c4[C@@]2(CCN3CC2CC2)[C@H]1O5` [NALTREXONE], the Hepatotoxicity entry in series [1] is listed as “drug-induced liver injury reported”; in series [2], “drug-induced liver injury reported”; in series [3], “no drug-induced liver injury reported”.

In the case of `CCCCCCCCCC(=O)O[C@H]1CC[C@H]2[C@@H]3CCC4=CC(=O)CC[C@@H]4[C@H]3CC[C@]12C` [NANDROLONE DECANOATE], the values for the Hepatotoxicity result in series [1], in series [2] and in series [3] were “no drug-induced liver injury reported”, “drug-induced liver injury reported” and “no drug-induced liver injury reported”, respectively.

Take `COc1ccc2cc([C@H](C)C(=O)O)ccc2c1` [NAPROXEN]: the Hepatotoxicity entry in series [1] (Liver) is “drug-induced liver injury reported”; in series [2] (Liver) it was “drug-induced liver injury reported”; in series [3] (Liver), “no drug-induced liver injury reported”.

`C[C@@H]1C/C=C/C=C/C=C/C=C/[C@H](O[C@@H]2O[C@H](C)[C@@H](O)[C@H](N)[C@@H]2O)C[C@@H]2O[C@](O)(C[C@@H](O)C[C@H]3O[C@@H]3/C=C/C(=O)O1)C[C@H](O)[C@H]2C(=O)O` [NATAMYCIN]: the figures for the Hepatotoxicity entry in series [1], in series [2] and in series [3] were “no drug-induced liver injury reported”, “no drug-induced liver injury reported” and “drug-induced liver injury reported”, respectively.

As for `CCc1nn(CCCN2CCN(c3cccc(Cl)c3)CC2)c(=O)n1CCOc1ccccc1` [NEFAZODONE], the Hepatotoxicity result is “drug-induced liver injury reported” in series [1], “no drug-induced liver injury reported” in series [2] and “no drug-induced liver injury reported” in series [3].

Take `CN(C)C(=O)Oc1cccc([N+](C)(C)C)c1.[Br-]` [NEOSTIGMINE BROMIDE]: the Hepatotoxicity entry was “no drug-induced liver injury reported” in series [1], “drug-induced liver injury reported” in series [2] and “no drug-induced liver injury reported” in series [3].

Consider `CCN[C@@H]1C[C@H](N)[C@@H](O[C@H]2OC(CN)=CC[C@H]2N)[C@H](O)[C@H]1O[C@H]1OC[C@](C)(O)[C@H](NC)[C@H]1O` [NETILMICIN], for which the results for the Hepatotoxicity result in series [1], in series [2] and in series [3] were “drug-induced liver injury reported”, “drug-induced liver injury reported” and “no drug-induced liver injury reported”, respectively.

`Cc1ccnc2c1NC(=O)c1cccnc1N2C1CC1` [NEVIRAPINE]: the figures for the Hepatotoxicity result in series [1], in series [2] and in series [3] were “drug-induced liver injury reported”, “no drug-induced liver injury reported” and “no drug-induced liver injury reported”, respectively.

In the case of `NC(=O)c1cccnc1` [NIACINAMIDE], the Hepatotoxicity entry is “drug-induced liver injury reported” in series [1], “drug-induced liver injury reported” in series [2] and “no drug-induced liver injury reported” in series [3].

On to `O=C(CCNNC(=O)c1ccncc1)NCc1ccccc1` [NIALAMIDE], for which the Hepatotoxicity result was “no drug-induced liver injury reported” in series [1], “drug-induced liver injury reported” in series [2] and “no drug-induced liver injury reported” in series [3].

With `CO[C@]12C[C@@H](COC(=O)c3cncc(Br)c3)CN(C)[C@@H]1Cc1cn(C)c3cccc2c13` [NICERGOLINE], the values for the Hepatotoxicity entry in series [1], in series [2] and in series [3] were “no drug-induced liver injury reported”, “drug-induced liver injury reported” and “no drug-induced liver injury reported”, respectively.

In the case of `O=C(OCC(COC(=O)c1cccnc1)(COC(=O)c1cccnc1)COC(=O)c1cccnc1)c1cccnc1` [NICERITROL], the Hepatotoxicity entry in series [1] is “no drug-induced liver injury reported”; in series [2], “no drug-induced liver injury reported”; in series [3] it was “drug-induced liver injury reported”.
